In patent US8383822B2, “Substituted oxazolidinones and their use” (Bayer Intellectual Property GmbH, priority 2007, dated 2013):

How the values were obtained:
[1] = molecular target: T1, factor Xa (Homo sapiens, UniProt P00742); assay: biochemical; details: factor Xa inhibition in citrate plasma (Octapharma), factor X activated by Russel viper venom, ChromozymX substrate, read at about 12 min
T1 construct: tissue Octapharma; host or cells: citrate plasma
Protocol: a.4) Determination of the Factor Xa-inhibitory Activity of the Potential Inhibitors in Plasma Samples
To determine the inhibition of factor Xa in plasma samples, the factor X present in plasma is activated by a protease from rattlesnake toxin. The factor Xa activity or its inhibition by potential inhibitors is then measured by addition of a chromogenic substrate.
Various concentrations of the substances to be tested are dissolved in dimethyl sulphoxide and mixed with an aqueous refludan solution (10 μg/ml). In clear 96-well plates having a flat bottom, 30 μl of citrate plasma (Octapharma) are mixed with 10 μl of the substance dilution.

[2] = molecular target: thrombin (Homo sapiens, UniProt P00734); assay: Thrombin-inhibitory activity in plasma samples (ecarin, fluorogenic thrombin substrate); assay type: biochemical; details: thrombin inhibition in citrate plasma (Octapharma), ecarin-stimulated, read at about 12 min
Protocol: a.5) Determination of the Thrombin-inhibitory Activity of the Potential Inhibitors in Plasma Samples
Various concentrations of the substances to be tested are dissolved in dimethyl sulphoxide and diluted with water.

T1 sequence (P00742 235-488 limits assumed): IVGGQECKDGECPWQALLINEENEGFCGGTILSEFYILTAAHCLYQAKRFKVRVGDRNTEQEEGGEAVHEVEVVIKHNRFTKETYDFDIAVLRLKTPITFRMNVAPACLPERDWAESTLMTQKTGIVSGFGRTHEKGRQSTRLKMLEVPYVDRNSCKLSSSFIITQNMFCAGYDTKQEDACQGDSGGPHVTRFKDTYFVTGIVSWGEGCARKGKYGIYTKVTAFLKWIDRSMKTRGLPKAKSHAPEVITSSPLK
T1 sequence (P00742 41-179 limits assumed): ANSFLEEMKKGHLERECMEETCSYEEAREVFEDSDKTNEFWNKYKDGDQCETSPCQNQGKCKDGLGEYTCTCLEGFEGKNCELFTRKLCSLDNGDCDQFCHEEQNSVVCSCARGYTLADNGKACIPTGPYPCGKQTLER

COCc1cc(N2C[C@H](CNC(=O)c3ccc(Cl)s3)OC2=O)ccc1-n1cccc(CCNCCCO)c1=O [Example 16]
IC50 [1]: 0.018 µM
IC50 [2]: 0.01 µM

COc1cc(N2C[C@H](CNC(=O)c3ccc(Cl)s3)OC2=O)ccc1-n1cccc(CCN[C@H]2CC[C@H](O)CC2)c1=O [Example 6, 5-Chloro-N-{[(5S)-3-{4-[3-{2-[(trans-4-hydroxycyclohexyl)amino]ethyl}-2-oxopyridin-1(2H)-yl]-3-methoxyphenyl}-2-oxo-1,3-oxazolidin-5-yl]methyl}thiophene-2-carboxamide]
IC50 [1]: 0.031 µM
IC50 [2]: 0.143 µM

COCc1cc(N2C[C@H](CNC(=O)c3ccc(Cl)s3)OC2=O)ccc1-n1cccc(CCN2CCN(C)CC2)c1=O [Example 13]
IC50 [1]: 0.017 µM
IC50 [2]: 0.016 µM

COCc1cc(N2C[C@H](CNC(=O)c3ccc(Cl)s3)OC2=O)ccc1-n1cccc(CCNCCO)c1=O [Example 9, 5-Chloro-N-{[(5S)-3-{4-[3-{2-[(2-hydroxyethyl)amino]ethyl}-2-oxopyridin-1(2H)-yl]-3-(methoxy-methyl)phenyl}-2-oxo-1,3-oxazolidin-5-yl]methyl}thiophene-2-carboxamide]
IC50 [1]: 0.011 µM
IC50 [2]: 0.01 µM

Cc1cc(N2C[C@H](CNC(=O)c3ccc(Cl)s3)OC2=O)ccc1-n1cccc(OCCN[C@H]2CC[C@H](O)CC2)c1=O [Example 21, 5-Chloro-N-{[(5S)-3-{4-[3-{2-[(trans-4-hydroxycyclohexyl)amino]ethoxy}-2-oxopyridin-1(2H)-yl]-3-methylphenyl}-2-oxo-1,3-oxazolidin-5-yl]methyl}thiophene-2-carboxamide]
IC50 [1]: 0.011 µM
IC50 [2]: 0.034 µM

CCCc1cc(N2C[C@H](CNC(=O)c3ccc(Cl)s3)OC2=O)ccc1-n1cccc(OCCNCCO)c1=O [Example 36, 5-Chloro-N-{[(5S)-3-{4-[3-{2-[(2-hydroxyethyl)amino]ethoxy}-2-oxopyridin-1(2H)-yl]-3-propyl-phenyl}-2-oxo-1,3-oxazolidin-5-yl]methyl}thiophene-2-carboxamide]
IC50 [1]: 0.029 µM
IC50 [2]: 0.036 µM

COCc1cc(N2C[C@H](CNC(=O)c3ccc(Cl)s3)OC2=O)ccc1-n1cccc(CCN[C@H]2CC[C@H](O)CC2)c1=O [Example 10, 5-Chloro-N-{[(5S)-3-{4-[3-{2-[(trans-4-hydroxycyclohexyl)amino]ethyl}-2-oxopyridin-1(2H)-yl]-3-(methoxymethyl)phenyl}-2-oxo-1,3-oxazolidin-5-yl]methyl}thiophene-2-carboxamide]
IC50 [1]: 0.015 µM
IC50 [2]: 0.024 µM

Cc1cc(N2C[C@H](CNC(=O)c3ccc(Cl)s3)OC2=O)cc(C)c1-n1cccc(CCNCCO)c1=O [Example 37, 5-Chloro-N-{[(5S)-3-{4-[3-{2-[(2-hydroxyethyl)amino]ethyl}-2-oxopyridin-1(2H)-yl]-3,5-dimethylphenyl}-2-oxo-1,3-oxazolidin-5-yl]methyl}thiophene-2-carboxamide]
IC50 [1]: 0.029 µM
IC50 [2]: 0.015 µM
